Data on one compound can be found in patent publication US20210238257A1, “De Novo Formation of the Biliary System by Hepatocyte Transdifferentiation” (THE REGENTS OF THE UNIVERSITY OF CALIFORNIA, priority 2018, published 2021).

The test system of this series is hepatocytes lacking RBPJ and HNF6. The series is described as follows: In vitro conversion assay: 3D culture of hepatocyte spheroids in collagen gels. The series is classed as cell-based, mouse. Conditions: 10 μM SB-431542 vs vehicle (DMSO). Here is the method:
Genomic DNA was isolated from cells using QIAamp DNA Micro Kit or DNeasy Blood & Tissue Kit (Qiagen). RNA was extracted using Trizol Reagent (Thermo Fisher Scientific) and purified by isopropanol precipitation (cells in collagen gel) or purified using RNAeasy Mini Kit (Qiagen) (liver tissue). Reverse transcription was performed using qScript cDNA Supermix (Quanta Biosciences). qPCR was performed using SYBR green reagent (Thermo Fisher Scientific) in a ViiA 7 system (Thermo Fisher Scientific). Reactions were performed in triplicate, and expression was normalized to an Rbpj (genotyping) or Gapdh (Glyceraldehyde-3-phosphate Dehydrogenase; gene expression) reference and quantified using the ΔΔCt method.
In vitro 3D culture of hepatocytes to induce biliary conversion was carried out as previously reported^21 with the following modifications. Hepatocytes were isolated from 8-10-week-old Rbpj^f/f;Hnf6^f/f mice injected with 1×10^12 vgs of AAV8-Ttr-Cre 2 weeks prior to delete RBPJ and HNF6. Hepatocytes were isolated by 2-step collagenase perfusion followed by purification through a Percoll gradient, all in the absence of serum. Cells were grown on Primaria plates for 6 days to form spheroids. Spheroids were cultured in collagen gels (Cultrex Rat Collagen I, Lower Viscosity, Trevigen) in the presence of 10 μM SB-431542 (Selleckchem) or vehicle (DMSO). The medium was changed every other day.

With `NC(=O)c1ccc(-c2nc(-c3ccc4c(c3)OCO4)c(-c3ccccn3)[nH]2)cc1` [SB-431542], the “biliary differentiation and morphogenesis of hepatocytes” value is “blocks biliary differentiation and morphogenesis”.
